Where a name gives a salt, the structure may show the parent alone.
What was measured:
MTD in mice = settings: BALB/c, mouse, in vivo, ip
Experimental: (§1) BALB/c mice were implanted with 7.5 k 4T1-Luc2GFP triple negative mouse breast cancer cells orthotopically into mammary fat pad 4. 7 days after implantation, tumors are visible in over 90% of animals. At day 8 and continuing twice weekly until the experiment end, the MTD of compound 4.HCl (i.e. the hydrochloride salt of compound 4 shown in FIG. 1), determined to be 40 mg/kg, was given IP to tumor-bearing mice; […]; Both drugs were in solvent (5% solutol-15, 5% PharmaSolve in normal saline) and a solvent control group was included in addition to sham injected (untreated) group. Primary tumor volume and animal weights was assessed by calipers throughout the experiment.

[1] = test system: 4T1-Luc2GFP triple negative mouse breast cancer cells; format: in vivo
Experimental: as §1
On day 40, all animals were injected IV with fluorescently labeled dextran as a marker of vasculature. Tumors were excised and weighed; lungs were excised and evaluated for metastases. […]; large micro metastases (>10 cells with no vasculature) and macrometastases (>10 cells with apparent vasculature) were counted. […]

wild type HeLa cells = test: HeLa cytotoxicity, wild type; format: cell-based; settings: Homo sapiens
[2] = test system: βIII-tubulin overexpressing HeLa cell line; test: HeLa cytotoxicity, βIII-tubulin overexpressing; format: cell-based

Structure (SMILES) | MTD (MTD in mice) [mg/kg] | 4T1 primary tumor growth (volume) ([1]; 40 mg/kg IP twice weekly from day 8, vs carrier or vs doxorubicin, FIG. 2) | number of lung small micro metastases ([1]; day 40, 1-9 cells without any vasculature, FIG. 5) | lung macrometastases ([1]; day 40, >10 cells with apparent vasculature, FIG. 5) | tumor weight at the end of the experiment ([1]; day 40, FIG. 4) | animal weight ([1]; mouse, in vivo) | IC50 (wild type HeLa cells) [µM] | fold less potent in βIII-tubulin overexpressing cell line than in wild type HeLa cells [2] [fold] | IC50 ([2]; Homo sapiens, βIII-tubulin overexpressing HeLa) [µM]
COc1ccc(N(C)c2nc(C)nc3c(Cc4ccccc4)cn(C)c23)cc1 [Compound 4.HCl, 7-Benzyl-N-(4-methoxyphenyl)-N,2,5-trimethyl-5H-pyrrolo[3,2-d]pyrimidin-4-amine] | 40 | significantly reduced 4T1 primary growth | reduced the number of lung small micro metastases | none had any lung macrometastases | reduced tumor weight | no change in animal weight | – | – | –
CC(=O)O[C@H]1C(=O)[C@@]2(C)[C@H]([C@H](OC(=O)c3ccccc3)[C@]3(O)C[C@H](OC(=O)[C@H](O)[C@@H](NC(=O)c4ccccc4)c4ccccc4)C(C)=C1C3(C)C)[C@]1(OC(C)=O)CO[C@@H]1C[C@@H]2O [paclitaxel] | – | – | – | – | – | – | 0.0053 ± 0.002 | 3 | 0.0161 ± 0.001

— patent US10906910B2, “Substituted bicyclic pyrimidine compounds with tubulin and multiple receptor inhibition” (Duquesne University of the Holy Spirit, priority 2014, dated 2021)
